Experimental data: PMC8041674 (European Journal of Nuclear Medicine and Molecular Imaging, 2020)
“And” between values parts separate entries of the source, which are not always exact repeats. Equal entries are not always repeated. Where two headings read alike, the source gives them in different places. Blank lines part the entries; values can stand above or below the molecule they belong to.

How the values were obtained:
[1] = Pharmacokinetic parameters of pridopidine in plasma; settings: at steady state, 0 to 12 h after oral administration of pridopidine
[2] = tested on: plasma proteins; assay: [^18F] fluspidine binding to plasma proteins (ultracentrifugation); format: in vitro ADME; settings: human, read-out: fraction of free tracer in plasma, not bound to plasma proteins
[3] = molecular target: T1, sigma-1 receptor (S1R) (Homo sapiens, UniProt Q99720); assay: [^18F] fluspidine distribution volume (S1R availability), one-tissue compartment model; format: in vivo; set-up: from tissue; host or cells: living human brain of male healthy volunteers and Huntington disease patients (in vivo PET); VND, non-displaceable distribution volume: unit not given here
Description: Application of the linear regression

[4] = molecular target: T1, sigma-1 receptor (S1R); assay: Test-retest [^18F] fluspidine PET substudy; format: in vivo; set-up: from tissue; host or cells: living human brain of male healthy volunteers and Huntington disease patients (in vivo PET); settings: two HVs, no pridopidine, VT of first and second PET scan
Experimental: The test-retest variability of [18F]Fluspidine binding (VT) was estimated for two HVs (age 27.5±3.5 yrs; body weight 67.0±11.3 kg) from PET data acquired at the same time point of the day within 11 and 14 weeks. No pridopidine was administered before imaging. The test-retest variability was calculated using linear regression of the first and second PET scan. Test-retest analysis was performed to calculate the uncertainty of the RO estimate. As estimated by the slope values of the linear regression, the variability was 0.887 (11.3%; subject #1) and 1.008 (0.8%; subject #2)(Supplementary Fig. S7; Supplementary

[5] = molecular target: T1, sigma-1 receptor (S1R); settings: for mean RO (S1R): 90 mg pridopidine; for RO (%), sigma-1 receptor occupancy: PET 2 h post dose
Description: This PET study consists of three PET substudies: the [^18F] fluspidine substudy (HVs, n = 11, HD, n = 3), the [^18F] fallypride substudy (HVs, n = 4), and the test-retest [^18F] fluspidine substudy (HVs, n = 2). All subjects were assigned to only one PET substudy. Subjects in the [^18F] fluspidine or [^18F] fallypride substudies were investigated twice within 4 weeks at the same time point of the day.
The doses were not established a priori but were based on the receptor occupancy results from previous cohort subjects. […] Because we observed near to complete S1R occupancy with 90 mg, we reduced the next dose to approximately one fourth. […] The total distribution volume VT of [^18F] fluspidine in the brain was computed from the corresponding TACs and the metabolite-corrected arterial input function using a one-tissue compartment model (1TCM).
The receptor occupancy (RO) is defined as the drug treatment-induced reduction of the receptor density. The values of RO are between 0 (no receptor occupancy) and 1 (100% receptor occupancy). […] Here, it is assumed that the non-displaceable distribution volume VND and the receptor occupancy RO have the same value in all brain regions. Application of the linear regression
1 VTPET1−VTPET2=ROVTPET1−VND yielded VND and RO. From the Lassen plot follows
2 RO=1−VTPET2−VND/VTPET1−VND

[6] = molecular target: T1, sigma-1 receptor (S1R); assay: in vivo; settings: for Emax: standard error in brackets
Experimental: Two models with Hill coefficient n fixed to 1 or optimized as a third parameter were investigated and characterized by the Akaike information criterion (AIC). Nonlinear parameter estimation was performed with Mathematica12 (Wolfram Research).

[7] = tested on: sigma-1 receptor (S1R) compared with dopamine D3 receptor (D3R); settings: in vitro and in vivo animal studies; cited from earlier work
[8] = tested on: sigma-1 receptor (S1R) compared with D2R; settings: in vitro and in vivo animal studies; cited from earlier work
[9] = tested on: S1R; settings: behaviorally effective doses, [^11C]SA4503 PET; cited from earlier work
[10] = tested on: D2/D3R; settings: behaviorally effective doses, [^11C] Raclopride PET; cited from earlier work
[11] = tested on: Huntington disease patients; settings: HD patients, 45 mg bid, week 52, PRIDE-HD; cited from earlier work
[12] = model plasma concentration Cavg2-4h (ng/ml), three-parameter Hill equation
[13] = model plasma concentration Cavg2-4h (ng/ml), two-parameter Hill equation (n = 1)
[14] = model weight adjusted dose (mg/kg), three-parameter Hill equation
[15] = model weight adjusted dose (mg/kg), two-parameter Hill equation (n = 1)

T1 sequence (Q99720 whole entry): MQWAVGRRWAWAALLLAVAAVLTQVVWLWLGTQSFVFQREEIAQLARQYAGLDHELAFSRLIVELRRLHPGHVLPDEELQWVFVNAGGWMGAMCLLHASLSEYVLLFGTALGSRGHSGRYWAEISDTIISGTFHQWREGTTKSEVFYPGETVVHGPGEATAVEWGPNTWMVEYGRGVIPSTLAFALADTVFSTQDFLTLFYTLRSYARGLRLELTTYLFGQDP

concentration of metabolite in plasma relative to unchanged pridopidine concentration [1]: less than 10%
SMILES: CS(=O)(=O)c1cccc(C2CCNCC2)c1 [TV45065]

SMILES: FCC[C@@H]1OC2(CCN(Cc3ccccc3)CC2)c2ccccc21 [[^18F] fluspidine, (S)-(-)-[^18F] Fluspidine]
fraction unbound [2]: 0.023 ± 0.007 | mean VT at baseline PET ([3]; HD (n = 3), cerebellum): 23.52 ± 12.66 | mean VT at baseline PET ([3]; HD (n = 3), corpus callosum): 8.89 ± 2.75 | mean VT at baseline PET ([3]; HD (n = 3), frontal cortex): 16.32 ± 6.76 | mean VT at baseline PET ([3]; HD (n = 3), medulla): 14.75 ± 7.28 | mean VT at baseline PET ([3]; HD (n = 3), midbrain): 16.46 ± 7.73 | mean VT at baseline PET ([3]; HD (n = 3), pons): 16.10 ± 8.74 | mean VT at baseline PET ([3]; HD (n = 3), striatum): 13.59 ± 5.98 | mean VT at baseline PET ([3]; HVs (n = 11), cerebellum, mean ± SD): 26.91 ± 4.49 | mean VT at baseline PET ([3]; HVs (n = 11), corpus callosum): 11.69 ± 2.40 | mean VT at baseline PET ([3]; HVs (n = 11), frontal cortex): 21.38 ± 3.37 | mean VT at baseline PET ([3]; HVs (n = 11), medulla): 16.63 ± 2.72 | mean VT at baseline PET ([3]; HVs (n = 11), midbrain): 19.31 ± 2.70 | mean VT at baseline PET ([3]; HVs (n = 11), pons): 19.13 ± 3.45 | mean VT at baseline PET ([3]; HVs (n = 11), striatum): 19.43 ± 2.95 | VND, non-displaceable distribution volume ([3]; Lassen plot, baseline vs post-pridopidine PET, patients with Huntington disease, individual subjects): 4.26 and 3.68 and 4.42 | test-retest variability, slope of the linear regression [4]: 0.887 and 1.008

mean RO (S1R) ([5]; HD patients): 87.4% | RO (%), sigma-1 receptor occupancy ([5]; healthy volunteer (n = 1), single dose 0.5 mg): 17.6% | RO (%), sigma-1 receptor occupancy ([5]; healthy volunteer (n = 1), single dose 1 mg): 41.8% | RO (%), sigma-1 receptor occupancy ([5]; healthy volunteer, individual subject, single dose 45 mg): 87.2% | RO (S1R), mean ([5]; healthy volunteers, 5 mg pridopidine): 78.0 ± 1.7% | mean RO (S1R) ([5]; healthy volunteers): 91.2% | RO (%), sigma-1 receptor occupancy ([5]; healthy volunteers, individual subjects, single dose 5 mg): 76.8% and 79.2% | RO (%), sigma-1 receptor occupancy ([5]; healthy volunteers, individual subjects, single dose 22.5 mg): 84.1% and 89.2% and 86.7% | RO (%), sigma-1 receptor occupancy ([5]; healthy volunteers, individual subjects, single oral dose 90 mg): 88.8% and 89.1% and 95.7% | RO (%), sigma-1 receptor occupancy ([5]; patients with Huntington disease, individual subjects, single dose 90 mg): 80.4% and 93.2% and 88.5% | Emax ([6]; model dose (mg), three-parameter Hill equation, healthy volunteers): 0.90 (0.01) | Emax ([6]; model dose (mg), two-parameter Hill equation (n = 1), healthy volunteers): 0.93 (0.02) | EC90 [6, 12]: 0.018 µg/mL and 0.01757 µg/mL | Emax [6, 12]: 0.89 (0.02) | EC90 [6, 13]: 0.028 µg/mL and 0.02852 µg/mL | Emax [6, 13]: 0.91 (0.02) | EC90 [6, 14]: 0.084 mg/kg | Emax [6, 14]: 0.89 (0.02) | EC90 [6, 15]: 0.135 mg/kg | Emax [6, 15]: 0.93 (0.02) | Hill coefficient ([6]; three-parameter model, all situations (concentration, dose, adjusted weight dose)): > 1
SMILES: CCCN1CCC(c2cccc(S(C)(=O)=O)c2)CC1 [pridopidine]
fold higher affinity towards S1R compared with D3R [7]: ~ 30 fold | fold higher affinity towards S1R compared with D2R [8]: ~ 100 fold | S1R occupancy in rat brains [9]: high S1R occupancy | D2/D3R occupancy in rat brains [10]: low D2/D3R occupancy | decline from baseline in total functional capacity (TFC) compared with placebo [11]: significantly less decline from baseline
